One test concerns the target BCKDC kinase (BDK) (Rattus norvegicus, UniProt Q00972). In words: Protection of E1 from BDK induced phosphorylation and inactivation. The test is classed as biochemical. Conditions: for kcat, KIC / kcat, KIV / kcat, KMV / Km: E1 decarboxylase activity, [+] Phenylbutyrate^b. The method, then: (§1) To determine the effect of phenylbutyrate on individual BCAA catabolic enzymes, activities of mitochondrial branched chain amino transferase (BCATm) and BCKDC enzymes were measured with and without phenylbutyrate using purified recombinant enzymes. BCATm generates the BCKA products that are elevated in MSUD and are the substrates for BCKDC. BCATm activity was measured at pH 8.0 and 298 K as described in Example 2. Kinetics of the E1 decarboxylase reaction with and without phenylbutyrate were determined in the presence of an artificial electron acceptor 2, 6-dichlorophenolindophenol (DCPIP). The assay mixture contained 100 mM potassium phosphate, pH 7.5, 2.0 mM MgCl2, 0.2 mM thiamin diphosphate (ThDP) and 0.1 mM DCPIP. The rate of decarboxylation at 30° C. was measured by monitoring the reduction of the dye at 600 nm (24, 25). For the overall BCKDC activity assay, the enzymes were exchanged into phosphate buffer (30 mM potassium phosphate, pH 7.5) containing 5 mM DTT using a PD-10 column and the enzyme concentrations were calculated from the absorption maxima at 280 nm. The protein complex was reconstituted with E1, lipoylated E2 (lip-E2) and E3 at a molar ratio of 12:1:55, in which lip-E2 exists as a 24-mer. The assay mixture contained 30 mM potassium phosphate pH 7.5, 100 mM NaCl, 3 mM NAD^+, 0.4 mM CoA, 2 mM MgCl2, 2 mM DTT, 0.1% Triton X-100, and 2 mM ThDP. The overall reaction was monitored by formation of NADH at 340 nm. The apparent rate constants (kapp) at different substrate concentrations for all of the above assays were determined from the absorption changes at the individual wavelength maximum. The kapp rate constants were fit using the following equation: kapp=kcat[S]/(Km+[S])
The phosphorylation of E1 was carried out in the phosphorylation reaction mix (30 mM HEPES, pH 7.4, 2 mM DTT, 1.5 mM MgCl2, and 0.2 mM EGTA) with and without addition of phenylbutyrate. E1, E2, and E3 proteins were mixed at 12:1:55 molar ratio in a 0.1 ml reaction mix, and 0.1 μg of maltose-binding protein-tagged rat BCKDC kinase (BDK) was added. The mix was pre-incubated at room temperature for 15 minutes. The phosphorylation reaction was started after addition of 0.4 mM ATP to the reaction mix, and the reaction was terminated at different time points by addition of higher salt concentration. Overall BCKDC activity was measured as described above.

Test [1] concerns E1α-phospho/E1α, E2, BCATm, BCATc. In words: Western blotting of BCKD complex and BCAT isozymes in lymphoblast cells. Format: cell-based, human. On the technique in general: Immunoblotting shows a protein as a band on a membrane.
Another test concerns the target T1, BCKDC (Homo sapiens, UniProt P12694+P21953).
T1 sequence (P12694 46-445): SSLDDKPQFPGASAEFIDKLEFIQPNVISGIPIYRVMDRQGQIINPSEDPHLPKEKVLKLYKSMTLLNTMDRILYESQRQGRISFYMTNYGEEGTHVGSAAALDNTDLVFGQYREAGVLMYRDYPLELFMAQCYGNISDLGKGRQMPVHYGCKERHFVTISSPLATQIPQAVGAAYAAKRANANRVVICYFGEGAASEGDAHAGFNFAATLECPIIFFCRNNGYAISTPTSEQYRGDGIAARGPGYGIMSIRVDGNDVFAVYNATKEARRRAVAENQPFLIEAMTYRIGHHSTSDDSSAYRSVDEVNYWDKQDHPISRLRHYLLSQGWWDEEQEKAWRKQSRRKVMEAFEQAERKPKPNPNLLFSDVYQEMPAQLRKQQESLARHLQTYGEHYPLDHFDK
T1 sequence (P21953 51-392): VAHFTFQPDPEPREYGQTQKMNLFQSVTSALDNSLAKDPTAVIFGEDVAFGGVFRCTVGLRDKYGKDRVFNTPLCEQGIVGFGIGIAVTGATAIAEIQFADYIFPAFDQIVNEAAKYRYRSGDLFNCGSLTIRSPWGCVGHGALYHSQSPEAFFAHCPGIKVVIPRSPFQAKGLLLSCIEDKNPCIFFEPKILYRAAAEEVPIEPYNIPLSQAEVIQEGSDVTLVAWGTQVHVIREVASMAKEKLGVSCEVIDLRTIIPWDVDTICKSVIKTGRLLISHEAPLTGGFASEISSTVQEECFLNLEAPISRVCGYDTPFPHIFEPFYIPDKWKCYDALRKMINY
In words: Overall BCKDC activity assay (reconstituted E1, lip-E2, E3; NADH formation). The conditions noted are these: Activity of BCKDC, [+] Phenylbutyrate. The test is classed as biochemical. The protocol: as §1, with “The protein complex was reconstituted with E1, lipoylated E2 (lip-E2) and E3 at a molar ratio of 12:1:55, in which lip-E2 exists as a 24-mer. The assay mixture contained 30 mM potassium phosphate pH 7.5, 100 mM NaCl, 3 mM NAD^+, 0.4 mM CoA, 2 mM MgCl2, 2 mM DTT, 0.1% Triton X-100, and 2 mM ThDP.” left out, “The kapp rate constants were fit using the following equation: kapp=kcat[S]/(Km+[S])” left out

The subject of test [2] is phosphorylated E1-α subunit of BCKDC. In words: Western blot of liver extract for phosphorylated E1 subunit of BCKDC. Format: in vivo, C57B6 mice. The conditions noted are these: 50 mg/kg/day oral gavage in 3 administrations, 3 days, N=5 per group, p<0.05. The protocol: FIG. 5 is a Western blot analysis of liver extract using an antibody against the phosphorylated form of the E1 subunit of BCKDC from C57B6 mice (N=5 mice per group) treated with phenylbutyrate or placebo. To investigate the effect and mechanism of phenylbutyrate on the BCKD, mice (n=5) were treated with saline or 50 mg/kg/day of phenylbutyrate divided into three administrations for three consecutive days and after three days of treatment they were sacrificed for analyses. Proteins were extracted from mouse livers and a western blot performed using an anti-phosphoserine BCKDC antibody, the anti-BCKDC-E1 antibody, and the anti-BCKDC-E2 antibody. Each lane corresponds to the liver extract from an independent mouse (from #1 to #3).
A post-translational mechanism of regulation of the activity of BCKDC by covalent modification by phosphorylation. In order to investigate the effect and mechanism of phenylbutyrate-mediated increased activity of BCKDC, Buphenyl® or saline were given orally to C57B6 mice (N=5 mice per group) by gavage at the dose of 50 mg/kg/day divided into 3 administrations for 3 consecutive days. After three days of treatment the animals were sacrificed to harvest the liver samples. Proteins were extracted from mouse livers by homogenizing the tissue in a buffer containing 5% SDS and 0.0625 M TrisHCl. […]

Structures are written as SMILES. Entries after “also recorded” stand apart in the source; their conditions may differ. Read-outs that look alike come from different tables or passages of the source.

Consider `O=C([O-])CCCc1ccccc1.[Na+]` [phenylbutyrate, sodium 4-phenylbutyrate], for which the “phosphorylation and inactivation of E1 in the presence of BCKDC kinase” value at BCKDC kinase (BDK) is on record as “prevent completely”. The entries for the “kcat, KIC” value on BCKDC kinase (BDK) ([+] BDK) and on BCKDC kinase (BDK) ([−] BDK) were 0.343 ± 0.0417 s⁻¹ and 0.33 ± 0.0283 s⁻¹, respectively. Moreover, the “kcat, KIV” value stood at 0.433 ± 0.0367 s⁻¹ on BCKDC kinase (BDK) ([+] BDK) and 0.467 ± 0.0317 s⁻¹ on BCKDC kinase (BDK) ([−] BDK). Further, the “kcat, KMV” value at BCKDC kinase (BDK) ([+] BDK) is 0.367 ± 0.03 s⁻¹; at BCKDC kinase (BDK) ([−] BDK), 0.333 ± 0.0183 s⁻¹; on BCKDC, 3.767 ± 0.3 s⁻¹. Besides, the Km (as a rule, the concentration of substrate that gives half-maximal velocity) at BCKDC kinase (BDK) ([+] BDK, read-out: Km, KIC) was 21 ± 1.9 µM; at BCKDC kinase (BDK) ([+] BDK, read-out: Km, KIV), 25 ± 2 µM; on BCKDC kinase (BDK) ([+] BDK, read-out: Km, KMV), 21 ± 3 µM; at BCKDC kinase (BDK) ([−] BDK, read-out: Km, KIC), 27 ± 2 µM; at BCKDC kinase (BDK) ([−] BDK, read-out: Km, KIV), 20 ± 3 µM; at BCKDC kinase (BDK) ([−] BDK, read-out: Km, KMV) it was 18 ± 2 µM. Moreover, the “levels of cytosolic isozyme BCATc” value in test [1] (all of the lymphoblasts but patient 5, 1 mM 48 h) is “appeared to increase”. For the same compound, the “levels of the mitochondrial isozyme BCATm” value in test [1] (both controls and patients 1 through 3, 1 mM 48 h) was “slightly elevated”. The “phosphorylation state of E1α” value was “Neither the controls nor patients 1, 2 and 3 responded” in test [1] (lymphoblasts from controls and patients 1, 2 and 3, 1 mM phenylbutyrate 48 h); “decrease” in test [1] (lymphoblasts from patients 4 and 5, 1 mM phenylbutyrate 48 h, no apparent change in E1 levels). Besides, the “phosphorylated E1-α subunit of BCKDC in liver vs saline treated mice” value in test [2] is “significant reduction; also recorded: significantly reduced”.

Values taken from patent publication US11786494B2, “Methods of modulation of branched chain acids and uses thereof” (Baylor College of Medicine, priority 2009, dated 2023).
